How the values were obtained:
[1] = tested on: CT26 cell line; test: MTT cytotoxic/antiproliferative activity, 72 h; type: cell-based, murine
[2] = tested on: NCI-H2228 cells; test: Phosphorylation of H2AX (γH2AX foci, confocal microscopy); type: cell-based, human; conditions: NCI-H2228, 3xIC50, 24 h
Description: (§1) The cytotoxicity assay was also employed to determine whether DNA damage might be involved in the mechanism of action of the tested compounds. The Chinese hamster ovary MMC2 cell line harbors the ERCC3/XPB mutation, which renders it deficient in nucleotide excision repair (NER), whereas the parent line CHOK1 is proficient in this repair process. Thus, the MMC2 line is often more sensitive to agents causing DNA damage, especially NER-reparable DNA damage, than CHOK1. […] Phosphorylation of H2AX is a commonly used marker of DNA damage.
The nuclei were counter-stained with DAPI. The samples were mounted with ProLong Diamond antifade mountant, and the images were recorded on a Leica SP8 confocal microscope.

[3] = tested on: NCI-H2228 spheroids; test: Cytotoxicity in 3D spheroids, CellTiter-Glo 3D; type: cell-based, human; conditions: NCI-H2228 3D spheroids, 96 h
Experimental: (§2) In the 3D structure, the gradients of gases, nutrients, and therapeutics play a role in the final cytotoxicity of a compound.
(§3) A549 and NCI-H2228 cells were seeded in ultralow attachment, U-shape plates (Corning) at a density of 800 cells/well in the tumorsphere medium consisting of DMEM/F12 medium (Sigma), fibroblast growth factor (20 ng/mL; Sigma), epidermal growth factor 2 (10 ng mL^–1; Sigma), B27 supplement (1×; Gibco), bovine serum albumin, bovine serum albumin (BSA) (1.5 mg mL^–1; Sigma). […] CellTiter-Glo 3D viability assay was used for the experiment evaluation following the manufacturer’s instructions. The bioluminescence signal, proportional to the number of living cells, was measured using the luminescence reader SPARK, and IC50 values were calculated.

[4] = tested on: A549 spheroids; test: Cytotoxicity in 3D spheroids, CellTiter-Glo 3D; type: cell-based, human; conditions: A549 3D spheroids, 96 h
Experimental: as §2, §3

[5] = tested on: CHOK1; test: MTT cytotoxicity in NER-proficient cells, 72 h; type: cell-based, Chinese hamster
Description: as §1
(§4) Cytotoxicity in hepatocyte-like cells (HLC). STEMdiff Hepatocyte Kit was used to generate HLC from human pluripotent stem cells. Cytotoxicity of several of the tested compounds in HLC was evaluated using the sulphorhodamine B assay.

[6] = tested on: MRC-5; test: MTT cytotoxicity in noncancerous cells, 72 h; type: cell-based, human; conditions: MRC-5, MTT
Experimental: (§5) Growth inhibition activity in cancer cell lines was compared with the activity to inhibit the proliferation of normal (noncancerous) cells, namely MRC-5, IMR-90, hTERT-HPNE, and MCF10A cells. Selectivity indexes (SI) were calculated as (IC50 in noncancerous cells)/(average IC50 in cancer cells). […] We further assessed the toxicity of several of the compounds in hepatocyte-like cells (HLC) generated from human pluripotent cells.
as §4

[7] = tested on: hTERT-HPNE; test: MTT cytotoxicity in noncancerous cells, 72 h; type: cell-based, human
Experimental: as §5, §4

[8] = tested on: MCF10A; test: MTT cytotoxicity in noncancerous cells, 72 h; type: cell-based, human
Experimental: as §5, §4

[9] = tested on: IMR-90; test: MTT cytotoxicity in noncancerous cells, 72 h; type: cell-based, human; conditions: IMR-90, MTT
Experimental: as §5, §4

[10] = tested on: normal (noncancerous) cells MRC-5, IMR-90, hTERT-HPNE, MCF10A; test: MTT, noncancerous cell lines (average, selectivity index); type: cell-based, human; conditions: for SI, selectivity index: IC50(normal cells)/averageIC50(cancer cells); for IC50: average over MRC-5, IMR-90, hTERT-HPNE, MCF10A, read-out: av norm (average IC50 in noncancerous cells)
Experimental: as §5, with “pluripotent cells. […]” for “pluripotent cells.”

[11] = tested on: A549; test: MTT cytotoxic/antiproliferative activity, 72 h; type: cell-based, human; conditions: for IC50: A549, MTT, 72 h
[12] = tested on: U87-MG; test: MTT cytotoxic/antiproliferative activity, 72 h; type: cell-based, human; conditions: for IC50: MTT, 72 h
Experimental: (§6) A panel of six cancer cell lines was used to evaluate the cytotoxic potential of the investigated compounds.
as §4

[13] = tested on: panel of six cancer cell lines; test: MTT, panel of six cancer cell lines (average, ranges); type: cell-based, human; conditions: average over six cancer cell lines; read-out: av cancer (average IC50 in cancer cells)
Experimental: as §6, §4

[14] = tested on: CT26 cells; test: Externalization of calreticulin (flow cytometry); type: cell-based, murine; conditions: IC50 concentrations, 16 h
Experimental: Cells with compromised cell membranes (PI-positive) were excluded from the analysis.
CT26 cells were seeded in 6-well plates at a density of 2.5 × 10^5 cells/well and grown overnight. […] PI was added before the flow cytometry analysis with a BD FACS Verse flow cytometer. Then 3 × 10^4 cells were analyzed following the exclusion of cell aggregates. Data was analyzed with FSC Express 7 software (DeNovo software, Glendale, CA).

[15] = tested on: HCT116; test: MTT cytotoxic/antiproliferative activity, 72 h; type: cell-based, human; conditions: for IC50: HCT116, MTT, 72 h
[16] = tested on: NCI-H2228; test: MTT cytotoxic/antiproliferative activity, 72 h; type: cell-based, human; conditions: for IC50: NCI-H2228, MTT, 72 h
[17] = tested on: A549 cells; test: Scratch test (cell migration); type: cell-based, human; conditions: A549, IC50 concentrations, 48 h
Experimental: First, we employed the scratch test. The ability to slow the cell closing the open area was observable for all tested compounds to a similar extent (Figure S38). Whereas the open area was almost completely closed after 48 h in nontreated cells, it remained almost fully clear of cells in the treated samples.
A549 cells were seeded in 24-well plates with inserts (Ibidi) at a density of 2 × 10^4 cells/chamber and incubated overnight. The inserts were then withdrawn, and fresh medium containing the investigated compounds was added. The image of the cell-free region was recorded at the time of compound addition and then after 48 h. The cell-free area was evaluated with Fiji software.

[18] = tested on: RD; test: MTT cytotoxic/antiproliferative activity, 72 h; type: cell-based, human; conditions: for IC50: MTT, 72 h
[19] = tested on: MMC2; test: MTT cytotoxicity in NER-deficient cells, 72 h; type: cell-based, Chinese hamster; conditions: for Index F: IC50(CHOK1)/IC50(MMC2); for IC50: MMC2 (NER deficient), MTT, 72 h
Description: as §1, with “damage. […]” for “damage.”

Row | SMILES | IC50 [1] [nM] | γH2AX foci (DNA damage marker) [2] | IC50 [3] [nM] | IC50 [4] [nM] | IC50 [5] [nM] | IC50 [6] [nM] | IC50 [7] [nM] | IC50 [8] [nM] | IC50 [9] [nM] | SI, selectivity index [10] | IC50 [10] [nM] | IC50 [11] [nM] | IC50 [12] [nM] | IC50 [13] [nM] | externalization of calreticulin [14] | IC50 [15] [nM] | IC50 [16] [nM] | antimigratory effect (closing of open area) [17] | IC50 [18] [nM] | IC50 [19] [nM] | further results
1 | N.N.[Cl][Pt][Cl] [cisPt, cisplatin, reference compound] | 6000 ± 1000 | detected γH2AX foci | 2100 ± 900 | 19000 ± 3000 | 24000 ± 2000 | 10000 ± 2000 | 12000 ± 2000 | 8000 ± 900 | 9600 ± 800 | 1.1 | 9900 | 4300 ± 200 | 3000 ± 200 | 8800 | weakest | 8800 ± 500 | 2400 ± 700 | reduced the area filling only partially | 7300 ± 200 | 2600 ± 600 | Index F [19]: 9.23(***); Index F ([19]; listed as cisplatin): approximately 9
2 | CC(Oc1cc(-c2cnn(C3CCN(C(=O)[O][Pt]([Cl])([Cl])[O]C(=O)CCCc4ccccc4)CC3)c2)cnc1N)c1c(Cl)ccc(F)c1Cl.N.N (stereo not shown) [compound 3, ctc-[Pt(NH3)2(crizotinib)(PhB)Cl2]] | 800 ± 200 | detected γH2AX foci | 410 ± 70 | 980 ± 50 | 630 ± 50 | 1500 ± 600 | 2200 ± 400 | 2600 ± 400 | 2300 ± 600 | – | 2200 | 480 ± 60 | 440 ± 50 | 500 | externalization of calreticulin was apparent | 570 ± 90 | 450 ± 90 | antimigratory potential comparable to that of crizotinib and ceritinib | 540 ± 70 | 230 ± 80 | –
3 | Cc1cc(Nc2ncc(Cl)c(Nc3ccccc3S(=O)(=O)C(C)C)n2)c(OC(C)C)cc1C1CCN(C(=O)[O][Pt]([Cl])([Cl])[O]C(=O)CCCc2ccccc2)CC1.N.N [compound 7, ctc-[Pt(NH3)2(ceritinib)(PhB)Cl2]] | 270 ± 70 | detected γH2AX foci | 110 ± 30 | 430 ± 70 | 460 ± 80 | 1200 ± 400 | 2000 ± 300 | 900 ± 200 | 1100 ± 300 | 5.9 | 1300 | 230 ± 80 | 260 ± 90 | 220 | externalization of calreticulin was apparent | 190 ± 60 | 70 ± 10 | antimigratory potential comparable to that of crizotinib and ceritinib | 350 ± 30 | 100 ± 30 | IC50(MIX)/IC50(complex) ([11]; A549, MIX3/3 or MIX7/7): 3.9; IC50(MIX)/IC50(complex) ([12]; MIX3/3 or MIX7/7): 2.4; IC50(MIX)/IC50(complex) ([15]; HCT116, MIX3/3 or MIX7/7): 3.1; IC50(MIX)/IC50(complex) ([16]; NCI-H2228, MIX3/3 or MIX7/7): 6.3; IC50(MIX)/IC50(complex) ([18]; MIX3/3 or MIX7/7): 1.7; Index F [19]: 4.60(**)

— PMC12670396, “Crizotinib- or Ceritinib-Conjugated Platinum(IV) Prodrugs As Potent Multiaction Agents Inducing Antiproliferative Effects in 2D and 3D Cancer Cell Models” (Journal of Medicinal Chemistry, 2025)
